Data reported in US20250170080A1, “COMPOSITIONS COMPRISING BUTYRIC ACID AND GLUCONIC ACID FOR THE TREATMENT OF DISORDERS AND SYNDROMES ASSOCIATED WITH INTESTINAL BARRIER DYSFUNCTIONS AND DYSBIOSIS” (DIFASS INTERNATIONAL S.P.A., priority 2022, published 2025).

Assays:
[1] = test system: IL-6; experiment: IL-6 release (ELISA) in reconstructed 3D human intestinal epithelium stressed with LPS+TNF-alpha; conditions: for effect on release of IL-6 (in words): LPS+TNF-alpha stressed tissue, vs positive control, t-test; for IL-6 Anti-inflammatory activity: compared with CTR+ (LPS+TNF-alpha), * = p<0.05 vs positive control; for IL-6 Anti-inflammatory activity / IL-6 % var. vs CTR −: reference dose; for IL-6 % var. vs CTR −: variation vs untreated tissues (CTR−), LPS+TNF-alpha stressed
Description: (§1) Assays of pro-inflammatory cytokines TNF-alpha and IL-6 were evaluated. The biological model used in the assay is a model of human intestinal epithelium reconstructed in vitro in 3D, consisting of intestinal epithelial and endothelial cells and fibroblasts of human origin. The highly differentiated tissue model is produced at the air-liquid interface in easily manageable culture tissue inserts using a serum-free medium. […] The cells used to produce the tissue model were screened for potential biological contaminants, using specific tests and analyses to guarantee the functionality and quality of the tissues.
(§2) The intestinal epithelium tissues reconstructed in vitro were exposed for 24 hours to the stressor lipopolysaccharide of bacterial origin (LPS) in combination with cytokine TNF-alpha, and simultaneously treated for a further 24 hours with each experimental condition examined. After the 48-hour experimental session, the culture media were harvested to assay pro-inflammatory cytokines TNF-alpha and IL-6.
(§3) Each ingredient and the mixture selected for the treatments were diluted in H2O, taking account of the average intestinal volume of 80 ml. In particular, the following reference doses were used: • calcium butyrate 500 mg; • gluconic acid 29.87 mg; • gluconic acid+calcium butyrate=29.87 mg+500 mg.
(§4) 50 μl of each sample was tested in the tissue model, simulating the following experimental conditions: • reference dose; The experimental protocol involved: • untreated tissues (CTR−); • tissues exposed to pro-inflammatory agents LPS+TNF-alpha (CTR+); • tissues exposed to pro-inflammatory agents LPS+TNF-alpha and treated with butyrate (calcium butyrate); • tissues exposed to pro-inflammatory agents LPS+TNF-alpha and treated with gluconic acid; • tissues exposed to pro-inflammatory agents LPS+TNF-alpha and treated with gluconic acid+butyrate (calcium butyrate) mixture; • Each test was conducted in duplicate. To monitor the ability of the tested ingredients to inhibit the inflammatory response in vitro in a system wherein an inflammatory condition has been induced, the production of pro-inflammatory cytokine TNF-alpha and interleukin 6 (IL-6) was evaluated. At the end of the treatments the culture media were harvested for the TNF-alpha and IL-6 assay using an ELISA kit. The data obtained were subjected to statistical analysis and compared using the t-test. The variations compared with the positive control are deemed significant for p<0.05 and indicated by “*”.
(§5) The results are expressed as mean values ±standard deviation (expressed in pg/ml), as % variation compared with CTR− and as anti-inflammatory activity compared with CTR+.

[2] = test system: TNF-alpha; experiment: TNF-alpha release (ELISA) in reconstructed 3D human intestinal epithelium stressed with LPS+TNF-alpha; conditions: for effect on release of TNF-alpha (in words): LPS+TNF-alpha stressed tissue, vs positive control, t-test; for TNF-alpha Anti-inflammatory activity: compared with CTR+ (LPS+TNF-alpha), * = p<0.05 vs positive control; for TNF-alpha Anti-inflammatory activity / TNF-alpha % var. vs CTR −: reference dose; for TNF-alpha % var. vs CTR −: variation vs untreated tissues (CTR−), LPS+TNF-alpha stressed
Description: as §1, §2, §3, §4, §5

[3] = oral intake; avoids digestion and absorption in the small intestine; cited from earlier work

## CCCC(=O)O [Butyrate, calcium butyrate]
[1]
  effect on release of IL-6 (in words): significantly reduce release of the pro-inflammatory cytokine
  IL-6 Anti-inflammatory activity: 23.8%*
  IL-6 % var. vs CTR −: 61.5%
[2]
  effect on release of TNF-alpha (in words): significantly reduce the release of the pro-inflammatory cytokine
  TNF-alpha Anti-inflammatory activity: 28.8%*
  TNF-alpha % var. vs CTR −: 40.5%

## O=C(O)[C@H](O)[C@@H](O)[C@H](O)[C@H](O)CO [Gluconic acid, gluconic acid]
[3]
  gluconic acid introduced with the diet or diet supplements that reaches the large intestine: over 70%
[1]
  effect on release of IL-6 (in words): significantly reduce release of the pro-inflammatory cytokine
  IL-6 Anti-inflammatory activity: 24.3%*
  IL-6 % var. vs CTR −: 60.5%
[2]
  effect on release of TNF-alpha (in words): significantly reduce the release of the pro-inflammatory cytokine
  TNF-alpha Anti-inflammatory activity: 30.3%*
  TNF-alpha % var. vs CTR −: 37.6%
